Laboratory results as given in ChEMBL document CHEMBL4373679, “Overcoming synthetic challenges in targeting coenzyme A biosynthesis with the antimicrobial natural product CJ-15,801” (Medchemcomm, 2019).

Key:
Assay type in all cases: functional, organism-based
[1] = test system: Plasmodium falciparum; assay: Antimalarial activity against Plasmodium falciparum infected in erythrocytes in presence of 1 uM pantothenic acid by SYBR safe-based fluorescence assay
[2] = test system: Plasmodium falciparum; assay: Antimalarial activity against Plasmodium falciparum infected in erythrocytes in presence of 100 uM pantothenic acid and TBA salt form by SYBR safe-based fluorescence assay
[3] = test system: Plasmodium falciparum; assay: Antimalarial activity against Plasmodium falciparum infected in erythrocytes in presence of 1 uM pantothenic acid and TBA salt form by SYBR safe-based fluorescence assay

| IC50 [2] [µM] | IC50 [3] [µM] | Structure (SMILES) | IC50 [1] [µM] |
| --- | --- | --- | --- |
| 25 | 25 | CC(C)(CO)[C@@H](O)C(=O)N/C=C/C(=O)O | 64 |
| – | – | CCCC[N+](CCCC)(CCCC)CCCC [TETRABUTHYLAMMONIUM] | 5 |
